Measurements: patent US11571484B2, “Compositions that target tumor-associated macrophages and methods of use therefor” (Sanford Burnham Prebys Medical Discovery Institute, priority 2017, dated 2023)
Ends that are not written are not given here.

Key:
[1] = system: peritoneal cells (CCR2+ macrophages) of 4T1 tumor-bearing mice; test: Flow cytometry of FAM-peptide binding to peritoneal cells from 4T1 tumor mice; assay type: cell-based, mouse; details: anti-CD206 10 μg/mL
Protocol: A, Change in fluorescence anisotropy of FAM-UNO (dotted line) and FAM-UNO in DTT (solid line) while incubating with mouse recombinant CD206. B, Change in fluorescence anisotropy of FAM-CSPGAK with mouse recombinant CD206 (solid line) or with CD163 (dotted line) and of FAM-CPMTDNE (control) with CD206 (dashed line). C, FAM-UNO binds selectively to CCR2^+ macrophages collected from the peritoneal cavity of 4T1 tumor-bearing mice, as 94.3% of FAM^+ cells are CCR2^+ cells. The analysis was done gating for the FAM^+ population (left panel). In these 4T1 tumor bearing mice, 58% of peritoneal cells are macrophages, i.e. CCR2^+ cells (right panel). D, FAM-UNO binding to peritoneal cells is inhibited by preincubating with 10 µg/mL of anti-CD206, whereas the preincubation with anti CD206 antibody had no effect on FAM-LyP-1 binding. In panels A and D are shown representative graphs from three independent experiments. In panels c and d are shown results from three independent experiments (n=3 mice) and bars of panel D represents mean+SEM.
Peritoneal cells were extracted from Balb/c mice 2 weeks after inoculation of 10^6 cells orthotopically). Mice were anesthetized and intraperitoneally injected with 5 mL of PBS+1% BSA, the abdomen was massaged to detach macrophages and the peritoneal fluid was collected. This procedure typically yielded 5-9×10^6 cells. Cells were concentrated to 1 mL in the same peritoneal fluid. For FAM-peptide incubation, the peptides were incubated for 30 minutes at 4° C. For antibody incubation the cells were incubated with antibody for 1 h at 4° C. A647 Rat anti-CCR2 (Biolegend, CA, USA. Catalog number 150603) was incubated for 1 h at 4° C. at a dilution of 1/200. FAM-peptides were incubated at a concentration of 0.5 μg/mL, and Rat anti-CD206 (Bio-Rad, CA, USA. Product code MCA2235GA) was incubated at a concentration of 10 μg/mL. Binding of FAM-peptides was monitored with 488 nm channel and CCR2 labeling was assessed in the 647 nm channel using A647 Anti-CCR2 (Biolegend, CA, USA). After incubation of FAM-Peptides or antibodies, the cells were washed 3 times at 4° C. with PBS-Tby centrifugation at 250 g for 6 minutes, followed by flow cytometry analysis (Accuri, BD Biosciences, CA, USA).

[2] = target: T1, recombinant mouse macrophage mannose receptor rmMMR/CD206 (Mus musculus, UniProt Q61830); test: Fluorescence anisotropy assay with mouse recombinant CD206; assay type: binding; details: 50 nM FAM peptide, 1 μM protein, 25 °C
T1 construct: purchased R&D Systems 2535-MM-050
T1 sequence (Q61830 20-1456): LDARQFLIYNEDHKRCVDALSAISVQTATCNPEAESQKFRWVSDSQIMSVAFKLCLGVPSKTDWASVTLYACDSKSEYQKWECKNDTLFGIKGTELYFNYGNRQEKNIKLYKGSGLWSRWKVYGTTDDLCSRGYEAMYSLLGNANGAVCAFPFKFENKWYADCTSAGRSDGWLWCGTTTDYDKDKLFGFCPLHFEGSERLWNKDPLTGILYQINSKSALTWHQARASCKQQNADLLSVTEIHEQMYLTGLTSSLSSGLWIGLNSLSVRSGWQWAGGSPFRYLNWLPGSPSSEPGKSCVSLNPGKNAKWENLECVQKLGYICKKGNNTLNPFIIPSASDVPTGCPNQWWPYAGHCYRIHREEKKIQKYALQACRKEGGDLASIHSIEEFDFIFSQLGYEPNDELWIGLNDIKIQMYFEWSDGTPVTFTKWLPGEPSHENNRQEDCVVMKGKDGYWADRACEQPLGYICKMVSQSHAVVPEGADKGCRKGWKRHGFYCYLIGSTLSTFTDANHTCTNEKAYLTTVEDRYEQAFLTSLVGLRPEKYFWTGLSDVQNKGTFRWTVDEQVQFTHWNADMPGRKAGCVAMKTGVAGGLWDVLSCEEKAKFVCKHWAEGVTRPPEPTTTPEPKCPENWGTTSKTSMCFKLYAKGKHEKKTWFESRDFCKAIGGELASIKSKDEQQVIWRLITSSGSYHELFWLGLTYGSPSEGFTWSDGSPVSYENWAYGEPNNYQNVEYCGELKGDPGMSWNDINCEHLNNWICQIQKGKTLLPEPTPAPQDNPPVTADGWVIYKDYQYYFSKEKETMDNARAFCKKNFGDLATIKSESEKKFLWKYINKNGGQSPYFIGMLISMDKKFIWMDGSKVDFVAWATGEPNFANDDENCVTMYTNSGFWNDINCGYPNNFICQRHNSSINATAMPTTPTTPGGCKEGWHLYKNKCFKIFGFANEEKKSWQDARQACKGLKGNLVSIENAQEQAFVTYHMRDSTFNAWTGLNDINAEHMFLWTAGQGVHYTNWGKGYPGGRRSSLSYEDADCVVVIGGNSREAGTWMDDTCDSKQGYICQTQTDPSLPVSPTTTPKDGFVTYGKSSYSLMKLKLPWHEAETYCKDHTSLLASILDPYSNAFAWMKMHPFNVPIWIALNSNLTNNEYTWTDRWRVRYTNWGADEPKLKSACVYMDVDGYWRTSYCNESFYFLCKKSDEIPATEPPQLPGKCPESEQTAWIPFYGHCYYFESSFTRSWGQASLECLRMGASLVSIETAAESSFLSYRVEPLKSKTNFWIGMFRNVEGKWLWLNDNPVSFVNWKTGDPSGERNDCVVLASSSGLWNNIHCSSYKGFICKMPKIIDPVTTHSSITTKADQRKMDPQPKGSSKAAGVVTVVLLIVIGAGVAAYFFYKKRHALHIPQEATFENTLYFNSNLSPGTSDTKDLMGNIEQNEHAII
Protocol: The stocks of fluorescent ligands (FAM-UNO, FAM-CSPGAK and FAM-CPMTDNE) in mQ water were stored at −20° C. […], 150 mM NaCl, 1 mM CaCl2, 0.1% Pluronic F-127, pH 7.4) on the day of experiment. The concentration of fluorescent ligands was determined by absorbance of FAM (E495=75000 M^−1 cm^−1).
The recombinant mouse macrophage mannose receptor rmMMR/CD206 (R&D Systems, catalog number: 2535-MM-050) and recombinant mouse CD163 (R&D Systems, catalog number: 7435-CD-050) were reconstituted at 1 mg/ml in IB, aliquoted and stored at −20° C. To generate linearized version of cyclic FAM-UNO peptide, the peptide at 1 mM concentration was preincubated for 24 h at room temperature in a dark place with 3 mM DTT and diluted with IB 2×10^5 times before the FA assay. The control experiment with FAM-CPMTDNE peptide (FIG. 22) was performed to rule out the possibility of disulphide bond formation, which could affect the binding properties of linear peptides. Initially, the peptide was preincubated in DMSO for 4 days at room temperature to enhance the disulphide bond formation, and then diluted in IB buffer with 3 mM DTT, and the disappearance of preformed dimer was observed as a change in FA signal.
In all experiments, FA signal measurements were done under pseudo first-order conditions with 50 nM singly labelled FAM peptides and 1 μM proteins. […] Assays were carried out in kinetic mode in a total volume of 30 μl at 25° C. on the PHERAstar (BMG Labtech, Germany) microplate reader using an optical module with excitation and emission filters of 485 nm (slit 10 nm) and 520 nm (slit 10 nm), respectively. Dual emission detection mode allows simultaneous recording of intensities that are parallel (l) and perpendicular (1) to the plane of excitation light. […] The background fluorescence (receptor and buffer components in the absence of fluorescent ligand) was subtracted independently from all intensity channels. FA signals at time t after initiation of binding reaction was calculated as parameters r(t) from the equation: […]

peritoneal macrophages = test: In vivo phage display on peritoneal cells of 4T1 tumor-bearing versus normal mice; set-up: species or system mouse; details: phage-displayed peptide, peritoneal cells of 4T1 tumor mice
Protocol: A, Naive phage library was injected intraperitoneally in 4T1 tumor-bearing mice and age-matched normal mice, and allowed to circulate for two h. Peritoneal cells were collected, the accompanying phages were rescued and the peptide-encoding segment of phage DNA was sequenced. […] Peritoneal cells were extracted from the mice, seeded on coverslips, allowed to attach for 2 h, fixed, permeabilized, and stained for CD206. CD206+ cells were counted from 6 different confocal images, 2 from each mouse. C, Highly repeated sequences obtained from the first round of the biopanning experiment shown schematically in panel A. D, Frequency of phage clones encoding UNO or a randomly picked peptide (CIGVSSDC) divided by the total number of repeated sequences) in the 4T1 tumor-bearing and normal mice.
Ten days later, the 4T1 mouse and a Balb/c female mouse of the matched age, were injected with 500 μL of a 7×10^10 pfu/mL of purified CX7C long-circulating library that bears a mutation on the p17 protein of tail fiber^45. After 2 h the mice were anesthetized and peritoneal cells were collected, washed by centrifugation, and lysed by hand-held homogenizer in 2 mL of LB+NP40 1%. The phage was amplified in E. coli strain BLT5403 for high throughput sequencing of peptide encoding segment of the phage genomic DNA using Ion Torrent semiconductor sequencing system.
In vivo phage display was carried out on orthotopic breast cancer bearing mice as outlined in FIG. 1A. Compared to peritoneal cells of healthy mice, […] macrophages were ˜5-fold overrepresented in Balb/c mice bearing metastatic syngeneic 4T1 breast tumors (FIG. 1B). We hypothesized that a peptide that binds to peritoneal macrophages in tumor-bearing mice may also target M2-like TAMs. Mice with 4T1 tumors were injected intraperitoneally (i.p.) with a phage library expressing 9-amino acid cyclic CX7C peptides. After 2 h, peritoneal cells were collected, bound phages were rescued by amplification, and the resulting phage pool was subjected to high-throughput sequencing of the peptide-encoding segment of the phage genome. […]

With “FAM-LyP-1: FAM-labeled LyP-1 (CGNKRTRGC; SEQ ID NO: 4), peptide that targets cell surface p32 (not fully specified (N-terminus); cysteine pairing not given here) [reference compound]” the “reduction of binding to peritoneal cells by pre-incubation with anti-CD206 antibody” value [1] was “no effect”.

For “FAM-CPMTDNE: FAM-labeled control peptide CPMTDNE (SEQ ID NO: 7) (not fully specified; FAM label) [reference compound]”, the “change in fluorescence anisotropy (interaction) with mouse recombinant CD206” value [2] was “did not cause significant changes in anisotropy values”.

For “CGEKRTRGC [phage clone previously identified together with LyP-1]”, the “representation among sequenced phage clones” value (peritoneal macrophages) was “second most abundant phage clone overrepresented in the cancer mice”.
